We go through two molecules from patent US20090076021A1, “THERAPEUTIC COMBINATIONS AND METHODS FOR CARDIOVASCULAR IMPROVEMENT AND TREATING CARDIOVASCULAR DISEASE” (priority 2006, published 2009).

Molecules are shown by their SMILES.

The assay deals with Hypothyroid rats. Briefly: Cardiac performance (Millar direct catheter system) in PTU-fed hypothyroid rats after 4 days of treatment. Format: in vivo, Male S.D. rats. The method, then:
Male S.D. rats (7 wks old) were rendered hypothyroid by being fed PTU diet (n 48; iodine deficient, 0.15% propylthiouracil) or normal chow (n=8) for 2 weeks. PTU fed rats were then separated into weight-matched groups the day prior to inception of the study, and treated for 4 days with vehicle (0.05 mL/100 g BW i.p.; 20% Cremophor EL; 20% ethanol; 60% H2O) or T3 (3 μg/kg) and scriptaid (1.5, 15 mg/kg) or its vehicle (100% DMSO; 0.04 mL/100 g BW i.p.). Because of differential pharmacodynamics of T3 and scriptaid, each animal received T3 or its vehicle at least 3 hours prior to receiving scriptaid or its vehicle. Following 4 days of treatment, core temperature, systemic hemodynamics, and cardiac performance data were collected under isoflurane anesthesia using the Millar direct catheter system no less two hours following scriptaid administration. At the conclusion of the experiment the animals were sacrificed, and blood and tissues collected for morphological and biochemical analysis. Hypothyroid rats have impaired systolic and diastolic cardiac performance relative to euthyroid control rats, while scriptaid alone exerted no effects on either systolic or diastolic cardiac performance.

[1] abbreviates: scriptaid (1.5, 15 mg/kg i.p.) coadministered with T3 (3 μg/kg), hypothyroid rats, compared with T3 alone.

For `N[C@@H](Cc1cc(I)c(Oc2ccc(O)c(I)c2)c(I)c1)C(=O)O` [T3, triiodothyronine], where the note is “T3 3 μg/kg, hypothyroid (PTU diet) rats, FIG. 1”, the “maximal positive and negative dP/dt (indices of systolic and diastolic performance)” value is “increased”. Moreover, for the setting “T3 3 μg/kg, hypothyroid (PTU diet) rats, FIG. 2”, the “tau (an index of myocardial relaxation)” value is on record as “improved”.
`O=C(CCCCCN1C(=O)c2cccc3cccc(c23)C1=O)NO` [scriptaid, 6-(1,3-Dioxo-1H,3H-benzo[de]isoquinolin-2-yl)-hexanoic acid hydroxyamide]: under setting [1], the “maximal +/−dP/dt” value was “significantly enhanced the effects of T3 treatment” and the tau entry is listed as “significantly enhanced the effects of T3 treatment”. For the same molecule, for the setting “scriptaid alone (1.5, 15 mg/kg i.p.), hypothyroid (PTU diet) rats, isoflurane anesthesia”, the “systolic or diastolic cardiac performance” value is on record as “no effects”.
